The target in assay [1] is T1, PRMT1 (Rattus norvegicus, UniProt Q63009). Kind of assay: Radioactive methyltransferase assay, PRMT1. It is filed as biochemical. The note with it: for IC50: IC50, His6x-PRMT1 0.05 μM, 2 μM H4(1-20), 5 μM [14C]-SAM, 30°C.
The target of assay [2] is T1, PRMT1. Kind of assay: Dialysis experiment and time-dependent inhibition. The note with it: dialysis and time-dependent inhibition (0, 1.5, 2.5, 4.0 μM). The assay is classed as biochemical.
The target of a further assay is T2, PRMT4/CARM1 (Mus musculus, UniProt Q9WVG6).
T2 sequence (Q9WVG6 1-608): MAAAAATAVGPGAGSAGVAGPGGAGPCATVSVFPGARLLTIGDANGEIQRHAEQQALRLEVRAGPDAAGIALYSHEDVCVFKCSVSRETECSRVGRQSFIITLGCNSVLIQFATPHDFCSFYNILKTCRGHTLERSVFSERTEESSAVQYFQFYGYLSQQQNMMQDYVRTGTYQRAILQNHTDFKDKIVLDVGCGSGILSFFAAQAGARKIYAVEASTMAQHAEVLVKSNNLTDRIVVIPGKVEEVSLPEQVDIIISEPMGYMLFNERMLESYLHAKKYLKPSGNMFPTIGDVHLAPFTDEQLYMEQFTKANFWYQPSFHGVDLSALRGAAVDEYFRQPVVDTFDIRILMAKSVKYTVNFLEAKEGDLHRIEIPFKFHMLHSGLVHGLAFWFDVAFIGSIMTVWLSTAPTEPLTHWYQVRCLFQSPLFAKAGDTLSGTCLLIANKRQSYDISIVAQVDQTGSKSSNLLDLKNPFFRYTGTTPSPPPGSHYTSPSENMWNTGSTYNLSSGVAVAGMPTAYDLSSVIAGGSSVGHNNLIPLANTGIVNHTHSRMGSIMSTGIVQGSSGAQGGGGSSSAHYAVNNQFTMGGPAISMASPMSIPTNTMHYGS
Nature of the assay: Radioactive methyltransferase assay, CARM1. The assay is classed as biochemical.

A further assay concerns HeLa cells. Kind of assay: Cell cycle assay by flow cytometry. It is filed as cell-based. As to conditions: 48 h of treatment at 2.5 and 5 μM (data not shown). For orientation: In flow cytometry, cells or beads pass a laser one at a time.
Another assay concerns the target PRMT1 Y152A (Rattus norvegicus, UniProt Q63009, Y152A). Nature of the assay: Radioactive methyltransferase assay, PRMT1 mutant Y152A. The assay is classed as biochemical. As to conditions: 4 μM inhibitor, 2 μM H4-20, 5 μM [14C]AdoMet.

T1 sequence (Q63009 whole entry): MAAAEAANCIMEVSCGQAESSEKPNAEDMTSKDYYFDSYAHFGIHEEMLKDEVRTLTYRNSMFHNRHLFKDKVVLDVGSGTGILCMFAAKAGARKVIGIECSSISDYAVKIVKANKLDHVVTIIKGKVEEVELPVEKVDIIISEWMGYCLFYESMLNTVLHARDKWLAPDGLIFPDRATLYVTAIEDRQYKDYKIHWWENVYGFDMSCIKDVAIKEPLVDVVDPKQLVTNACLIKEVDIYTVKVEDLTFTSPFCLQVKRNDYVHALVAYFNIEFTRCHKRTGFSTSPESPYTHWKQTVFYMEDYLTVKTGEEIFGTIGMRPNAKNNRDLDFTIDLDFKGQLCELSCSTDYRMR
Chain of PRMT1 Y152A (Q63009 whole entry Y152A): as the sequence (Q63009 whole entry) above, with Y152A counted along it

For orientation: IC50 means the point on the concentration scale where inhibition reaches its midpoint. For the molecule `C(/C=C/C1=[N+](CCCc2ccccc2)c2cccc3cccc1c23)=c1\c2cccc3cccc(c32)n1CCCc1ccccc1` [compound 13, 1-phenylpropyl-2-[3-(1-phenylpropylbenz[c,d]indol-2(1H)-ylidene)-1-propen-1-yl]iodide], on PRMT1 [1], the IC50 was 15.5 ± 0.2 µM.

Take `CCN1/C(=C\C=C\C2=[N+](CC)c3ccccc3C2(C)C)C(C)(C)c2ccccc21` [compound 22]: the IC50 at PRMT1 [1] stood at 284 ± 3.5 µM.

With `CCn1/c(=C\C=C\C2=[N+](CC)c3cccc4cccc2c34)c2cccc3cccc1c32.[I-]` [compound 11, 1-ethyl-2-[3-(1-ethylbenz[c,d]indol-2(1H)-ylidene)-1-propen-1-yl]-iodide], the “reversible vs irreversible inhibition” value at PRMT1 [2] was “reversible”. Besides, the IC50 on PRMT4/CARM1 was around 100 µM. Moreover, the “kinetic pattern of inhibition” value at PRMT1 [1] (steady-state kinetics, with regard to both H4 and AdoMet substrates) is on record as “noncompetitive inhibitor”. Moreover, the “Sub-G1 population, indicative of apoptosis” value in the assay with HeLa cells is recorded as “appearance of a hypodiploid peak (Sub-G1) was observed”. In addition, the “inhibition of Y152A PRMT1 compared with wt-PRMT1” value on PRMT1 Y152A is recorded as “same potency as is for wt-PRMT1”.

Regarding `CCN1/C(=C/C=C/C2=[N+](CC)c3ccc4ccccc4c3C2(C)C)C(C)(C)c2c1ccc1ccccc21` [compound 25], at PRMT1 [1], the IC50 came to 20.3 ± 0.2 µM.

With `CCCCN1/C(=C\C=C\C2=[N+](CCCC)c3ccc4ccccc4c3C2(C)C)C(C)(C)c2c1ccc1ccccc21` [compound 26], the half-inhibitory concentration (IC50) on PRMT1 [1] was found to be 18 ± 0.5 µM.

Take `CC1(C)C(/C=C/C=C2/N(CCCc3ccccc3)c3ccc4ccccc4c3C2(C)C)=[N+](CCCc2ccccc2)c2ccc3ccccc3c21` [compound 27]: the half-inhibitory concentration (IC50) on PRMT1 [1] was determined as 14.3 ± 0.2 µM.

Consider `CC1(C)C(/C=C/C=C2/N(CCC[N+](C)(C)C)c3ccc(Br)cc3C2(C)C)=[N+](CCC[N+](C)(C)C)c2ccc(Br)cc21` [compound 29], for which the 50% inhibitory concentration (IC50) at PRMT1 [1] was determined as 292 ± 40.1 µM.

As for `CCCCn1/c(=C\C=C\C2=[N+](CCCC)c3cccc4cccc2c34)c2cccc3cccc1c32` [compound 12, 1-butyl-2-[3-(1-butyllbenz[c,d]indol-2(1H)-ylidene)-1-propen-1-yl]-iodide], the IC50 at PRMT1 [1] was found to be 12 ± 0.5 µM.

The values above are taken from article PMC4151304 (European journal of medicinal chemistry, 2012).
